The record followed here is patent US20080103123A1, “New compounds” (Biovitrum, priority 2006, published 2008).

In this assay the target is T1, human GPR119 receptor (Homo sapiens, UniProt Q8TDV5).
T1 construct: expressed in transfected cells
T1 sequence (Q8TDV5 1-335): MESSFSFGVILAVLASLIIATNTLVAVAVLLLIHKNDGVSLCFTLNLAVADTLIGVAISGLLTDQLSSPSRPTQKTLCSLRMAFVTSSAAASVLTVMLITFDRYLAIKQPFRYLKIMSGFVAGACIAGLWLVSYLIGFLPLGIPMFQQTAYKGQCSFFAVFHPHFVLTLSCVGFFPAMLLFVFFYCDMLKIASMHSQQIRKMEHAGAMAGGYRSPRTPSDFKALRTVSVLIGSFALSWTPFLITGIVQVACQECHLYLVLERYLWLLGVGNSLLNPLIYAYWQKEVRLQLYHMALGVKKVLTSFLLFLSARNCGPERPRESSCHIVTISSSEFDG
Description: Human GPR119 Activity Assay (cAMP, HTRF). Type of assay: cell-based. The conditions noted are these: for EC50: stimulation of cAMP in HEK293 cells stably expressing human GPR119, 20 min at room temperature, HTRF, read-out: EC50 (μM), Agonist potency at the human GPR119. As to the method: Human GPR119 Activity Assay
Agonists to the human GPR119 receptor were characterized by measuring human GPR119 receptor-mediated stimulation of cyclic AMP (cAMP) in HEK 293 cells expressing the human GPR119 receptor.
Briefly, cAMP content was determined using a cAMP kit based on HTRF technology (Homogeneous Time-Resolved Fluorescence, Cisbio Cat. no. 62AM2PEC). HEK293 cells stably expressing the human GPR119 receptor (HEK293-hGPR119 cells) were cultured in DMEM (Gibco # 31966-021) supplemented with 10% Bovine Calf Serum (Hyclone # SH30072.03), and, 500 μg/mL Hygromycin B (Roche Diagnostics 843555). At 80% confluency, cells were detached using Trypsine and aliquoted at a density of 5×10^6 cells/mL in freezing medium (DMEM (Gibco # 31966-021), 20% BCS (Hyclone # SH30072.03), 10% DMSO (Sigma #D2650) and stored at −135° C. On the experimental day, HEK293-hGPR119 cells were thawn and diluted to 0.4×10^6 cells/mL in assay buffer (1×HBSS (Gibco Cat. no. 14025-049), 20 mM Hepes (Gibco Cat. no. 15630-056), 0.1% BSA, pH 7.4) and incubated with test substances for 20 min at room temperature. After addition of HTRF reagents diluted in lysis buffer, the 96- or 384-well plates were incubated 1 hour, followed by measuring the fluorescence ratio at 665 nm/620 nm. Test substances was diluted in compound buffer (1×HBSS (Gibco Cat. no. 14025-049), 20 mM Hepes (Gibco Cat. no. 15630-056), 0.1% BSA, 2 mM IBMX (Sigma-Aldrich Cat. No. 17018, pH 7.4). The potency of the agonist was quantified by determine the concentration that cause 50% activation of hGPR119 evoked increase in cAMP, EC50.
(In general: Time-resolved FRET reads energy transfer from a long-lived donor to a nearby acceptor.)

pEC50: −log10 of the molar value. Read-outs that look alike come from different tables or passages of the source.

For orientation: EC50 means the concentration giving half of the maximal effect. For the compound `CS(=O)(=O)c1ccc(-c2ccc(OCC3CCN(C(=O)OCc4ccccc4)CC3)nc2)cc1` [EXAMPLE A2, Benzyl 4-[({5-[4-(methylsulfonyl)phenyl]pyridin-2-yl}oxy)methyl]piperidine-1-carboxylate], the EC50 came to 0.11 µM.
On the same count and under the same terms, next, `CN(Cc1ccc(-c2ccc(S(C)(=O)=O)cc2)cn1)C1CCN(C(=O)OC(C)(C)C)CC1` [EXAMPLE A39, tert-Butyl 4-[methyl({5-[4-(methylsulfonyl)phenyl]pyridin-2-yl}methyl)amino]-piperidine-1-carboxylate]: 0.139 µM.
The pEC50 is the EC50 on a negative log10 scale, so that one unit is a factor of ten. Lower therefore signals a large EC50. For the compound `CN(Cc1ccc(-c2ccc(S(C)(=O)=O)cc2)nc1)C1CCN(C(=O)OC(C)(C)C)CC1` [EXAMPLE B2, tert-Butyl 4-[methyl({6-[4-(methylsulfonyl)phenyl]pyridin-3-yl}methyl)amino]-piperidine-1-carboxylate], the pEC50 was 7.66.
